Structures can show the parent of a compound that is named as a salt. Where two headings read alike, the source gives them in different places.
System: Acinetobacter baumannii ATCC17961
Assay: Antimicrobial susceptibility testing: 90% growth inhibitory concentration (IC90) determination in Iso-Sensitest broth, OD600 growth
Format: cell-based
Summary of the method: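 Serial twofold dilution, 10 points, e.g. 50–0.097 μM final; ~5×10^(5) CFU/ml; 35±2° C, 16 h; kinetic OD600 every 20 min; IC90 from log-phase inhibition.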

[1] = Acinetobacter baumannii, ATCC17961, 16 h, read-out: A. baumannii ATCC 17961 IC90 (uM), strain ATCC 17961, OD600 growth over 16 h
[2] = Acinetobacter baumannii, ATCC17961, 16 h, strain ATCC 17961, OD600 growth over 16 h, read-out: A. baumannii ATCC 17961 IC90
[3] = strain ATCC 17961, OD600 growth over 16 h, read-out: A. baumannii ATCC 17961 IC90

| IC90 [2] [µM] | Structure (SMILES) | IC90 [1] [µM] | other results |
| --- | --- | --- | --- |
|  | N#CCn1cc(-c2cnc3c(Nc4ccc(C(=O)NCC(=O)N5CC(N)C5)c(Cl)c4)nccn23)c(C(F)(F)F)n1 [Example 713, N-[2-(3-aminoazetidin-1-yl)-2-oxo-ethyl]-2-chloro-4-[[3-[1-(cyanomethyl)-3-(trifluoromethyl)pyrazol-4-yl]imidazo[1,2-a]pyrazin-8-yl]amino]benzamide formate] | 0.417 |  |
| 1.59 | CNC(=O)c1ccc(Nc2nccn3c(-c4cn(CC(N)=O)nc4C(F)(F)F)cnc23)cc1Cl [Example 357, 4-[[3-[1-(2-amino-2-oxoethyl)-3-(trifluoromethyl)pyrazol-4-yl]imidazo[1,2-a]pyrazin-8-yl]amino]-2-chloro-N-methylbenzamide] |  |  |
|  | CCc1cc(Nc2nccn3c(-c4c[nH]nc4C(F)(F)F)cnc23)ccc1C(=O)NCCNC(=O)C1CCNCC1 [Example 553, N-(2-(2-ethyl-4-((3-(3-(trifluoromethyl)-1H-pyrazol-4-yl)imidazo[1,2-a]pyrazin-8-yl)amino)benzamido)ethyl) piperidine-4-carboxamide formate] | 0.682 |  |
| 0.348 | CCc1cc(Nc2nccn3c(-c4cn(C(F)F)nc4C(F)(F)F)cnc23)ccc1C(=O)NCCNC(=O)[C@@H]1CCCN1 [Example 36, (2S)-N-[2-[[4-[[3-[1-(difluoromethyl)-3-(trifluoromethyl)pyrazol-4-yl]imidazo[1,2-a]pyrazin-8-yl]amino]-2-ethylbenzoyl)amino]ethyl] pyrrolidine-2-carboxamide] |  |  |
| 0.475 | C#CCn1cc(-c2cnc3c(Nc4ccc(C(=O)N5CCN(C(=O)C6CCNCC6)CC5)c(CC)c4)nccn23)c(C(F)F)n1 [Example 730, (4-(4-((3-(3-(difluoromethyl)-1-(prop-2-yn-1-yl)-1H-pyrazol-4-yl)imidazo[1,2-a]pyrazin-8-yl)amino)-2-ethylbenzoyl)piperazin-1-yl)(piperidin-4-yl) methanone] |  |  |
|  | COCCn1cc(-c2cnc3c(Nc4ccc(C(=O)N5CCN(C(=O)N[C@H]6CCNC6)CC5)c(Cl)c4)nccn23)c(C(F)(F)F)n1 [Example 293, 4-[2-chloro-4-[[3-[1-(2-methoxyethyl)-3-(trifluoromethyl)pyrazol-4-yl]imidazo[1,2-a]pyrazin-8-yl]amino]benzoyl]-N-[(3S)-pyrrolidin-3-yl]piperazine-1-carboxamide formate] | 0.429 |  |
| 4.03 | CCc1cc(Nc2nccn3c(-c4cn(CCF)nc4C(F)(F)F)cnc23)ccc1C(=O)NCCOC[C@H](C)N [Example 158, N-[2-[(2S)-2-aminopropoxy]ethyl]-2-ethyl-4-[[3-[1-(2-fluoroethyl)-3-(trifluoromethyl)pyrazol-4-yl]imidazo[1,2-a]pyrazin-8-yl]amino]benzamide] |  |  |
|  | CCc1cc(Nc2nccn3c(-c4cn(Cc5cccnc5)nc4C(F)(F)F)cnc23)ccc1C(=O)NCCCNCCCCNCCCN [Example 7, N-[3-[4-(3-aminopropylamino)butylamino]propyl]-2-ethyl-4-[[3-[1-(pyridin-3-ylmethyl)-3-(trifluoromethyl)pyrazol-4-yl]imidazo[1,2-a]pyrazin-8-yl]amino]benzamide hydrochloride] | 0.782 |  |
|  | NC1CC(C(=O)N2CCN(C(=O)c3ccc(Nc4nccn5c(-c6c[nH]nc6C(F)(F)F)cnc45)cc3Cl)CC2)C1 (stereo not shown) [Example 330, [4-(3-aminocyclobutanecarbonyl)piperazin-1-yl]-[2-chloro-4-[[3-[3-(trifluoromethyl)-1H-pyrazol-4-yl]imidazo[1,2-a]pyrazin-8-yl]amino]phenyl]methanone formate] |  | IC90 (read-out: A. baumannii ATCC 17961 IC90, strain ATCC 17961, OD600 growth over 16 h, formate): 0.275 µM |
|  | NC1CC(NC(=O)N2CCN(C(=O)c3ccc(Nc4nccn5c(-c6c[nH]nc6C(F)(F)F)cnc45)cc3Cl)CC2)C1 (stereo not shown) [Example 289, N-(3-aminocyclobutyl)-4-[2-chloro-4-[[3-[3-(trifluoromethyl)-1H-pyrazol-4-yl]imidazo[1,2-a]pyrazin-8-yl]amino]benzoyl] piperazine-1-carboxamide formate] |  | IC90 [3]: 0.234 µM |
| 0.059 | C#CCn1cc(-c2cnc3c(Nc4ccc(C(=O)NCCOCC(C)(C)N)c(CC)c4)nccn23)c(C(F)(F)F)n1 [Example 44, N-[2-(2-amino-2-methylpropoxy)ethyl]-2-ethyl-4-[[3-[1-prop-2-ynyl-3-(trifluoromethyl)pyrazol-4-yl]imidazo[1,2-a]pyrazin-8-yl]amino]benzamide] |  |  |
|  | Cc1ccnc(Cn2cc(-c3cnc4c(Nc5ccc(C(=O)N6CCNCC6)c(Cl)c5)nccn34)c(C(F)(F)F)n2)n1 [Example 161, [2-chloro-4-[[3-[1-[(4-methylpyrimidin-2-yl)methyl]-3-(trifluoromethyl)pyrazol-4-yl]imidazo[1,2-a]pyrazin-8-yl]amino]phenyl]-piperazin-1-ylmethanone formate] | 0.764 |  |
|  | NCCCC(=O)N1CCN(C(=O)c2ccc(Nc3nccn4c(-c5c[nH]nc5C(F)(F)F)cnc34)cc2Cl)CC1 [Example 399, 4-amino-1-[4-[2-chloro-4-[[3-[3-(trifluoromethyl)-1H-pyrazol-4-yl]imidazo[1,2-a]pyrazin-8-yl]amino]benzoyl]piperazin-1-yl]butan-1-one formate] | 0.214 |  |
| 0.46 | CCc1cc(Nc2nccn3c(-c4c[nH]nc4C(F)(F)F)cnc23)ccc1C(=O)NCCNC(=O)N1CCC(N)CC1 [Example 568, 4-amino-N-(2-(2-ethyl-4-((3-(3-(trifluoromethyl)-1H-pyrazol-4-yl)imidazo[1,2-a]pyrazin-8-yl)amino)benzamido)ethyl) piperidine-1-carboxamide formate] |  |  |
|  | CCc1cc(Nc2nccn3c(-c4cn(CC(F)F)nc4C(F)(F)F)cnc23)ccc1C(=O)NCCNC(=O)[C@@H](C)N [Example 643, (R)-N-(2-(2-aminopropanamido)ethyl)-4-((3-(1-(2,2-difluoroethyl)-3-(trifluoromethyl)-1H-pyrazol-4-yl)imidazo[1,2-a]pyrazin-8-yl)amino)-2-ethylbenzamide formate] | 0.232 |  |
|  | NC1CC(NC(=O)N2CCN(C(=O)c3ccc(Nc4nccn5c(-c6c[nH]nc6C(F)(F)F)cnc45)cc3Cl)CC2)C1 (stereo not shown) [Example 265, N-(3-aminocyclobutyl)-4-[2-chloro-4-[[3-[3-(trifluoromethyl)-1H-pyrazol-4-yl]imidazo[1,2-a]pyrazin-8-yl]amino]benzoyl] piperazine-1-carboxamide formate] |  | IC90 [3]: 0.231 µM |
|  | O=C(c1ccc(Nc2nccn3c(-c4c[nH]nc4C(F)(F)F)cnc23)cc1Cl)N1CCN(C(=O)[C@@H]2CCNC[C@@H]2O)CC1 [Example 450, [2-chloro-4-[[3-[3-(trifluoromethyl)-1H-pyrazol-4-yl]imidazo[1,2-a]pyrazin-8-yl]amino]phenyl]-[4-[(3R,4R)-3-hydroxypiperidine-4-carbonyl]piperazin-1-yl]methanone formate] | 0.306 |  |
|  | N#CCn1cc(-c2cnc3c(Nc4ccc(C(=O)N5CCN(C(=O)N6CC[C@H](N)C6)CC5)c(Cl)c4)nccn23)c(C(F)(F)F)n1 [Example 180, 2-[4-[8-[4-[4-[(3S)-3-aminopyrrolidine-1-carbonyl]piperazine-1-carbonyl]-3-chloroanilino]imidazo[1,2-a]pyrazin-3-yl]-3-(trifluoromethyl)pyrazol-1-yl]acetonitrile formate] | 0.182 |  |
| 2.01 | NC1CC(NC(=O)CNC(=O)c2ccc(Nc3nccn4c(-c5c[nH]nc5C(F)(F)F)cnc34)cc2Cl)C1 (stereo not shown) [Example 138, N-[2-[(3-aminocyclobutyl)amino]-2-oxoethyl]-2-chloro-4-[[3-[3-(trifluoromethyl)-1H-pyrazol-4-yl]imidazo[1,2-a]pyrazin-8-yl]amino]benzamide] |  |  |
| 0.536 | Cc1cc(Nc2nccn3c(-c4c[nH]nc4C(F)(F)F)cnc23)ccc1C(=O)N1CCN(C(=O)C2(O)CCCNC2)CC1 (stereo not shown) [Example 436, [4-(3-hydroxypiperidine-3-carbonyl)piperazin-1-yl]-[2-methyl-4-[[3-[3-(trifluoromethyl)-1H-pyrazol-4-yl]imidazo[1,2-a]pyrazin-8-yl]amino]phenyl]methanone hydrochloride] |  |  |
| 0.174 | CCc1cc(Nc2nccn3c(-c4cn(CC#N)nc4C(F)(F)F)cnc23)ccc1C(=O)NCCCNC(=O)[C@H]1C[C@@H](N)C1 [Example 482, N-(3-((1s,3s)-3-aminocyclobutane-1-carboxamido)propyl)-4-((3-(1-(cyanomethyl)-3-(trifluoromethyl)-1H-pyrazol-4-yl)imidazo[1,2-a]pyrazin-8-yl)amino)-2-ethylbenzamide formate] |  |  |
|  | Cc1cc(Nc2nccn3c(-c4cn(CC#N)nc4C(F)(F)F)cnc23)ccc1C(=O)N1CCN(C(=O)[C@@H]2C[C@](C)(O)CN2)CC1 [Example 424, formic acid; 2-[4-[8-[4-[4-[(2S,4S)-4-hydroxy-4-methylpyrrolidine-2-carbonyl]piperazine-1-carbonyl]-3-methylanilino]imidazo[1,2-a]pyrazin-3-yl]-3-(trifluoromethyl)pyrazol-1-yl]acetonitrile] | 0.685 |  |
|  | CCc1cc(Nc2nccn3c(-c4cn(C5CCC5)nc4C(F)(F)F)cnc23)ccc1C(=O)NCCOCCCN [Example 609, N-(2-(3-aminopropoxy)ethyl)-4-((3-(1-cyclobutyl-3-(trifluoromethyl)-1H-pyrazol-4-yl)imidazo[1,2-a]pyrazin-8-yl)amino)-2-ethylbenzamide formate] | 0.086 |  |
| 3.29 | Cc1cc(Nc2nccn3c(-c4cn(CC#N)nc4C(F)(F)F)cnc23)cc(F)c1C(=O)N1CCNCC1 [Example 77, 2-[4-[8-[3-fluoro-5-methyl-4-(piperazine-1-carbonyl)anilino]imidazo[1,2-a]pyrazin-3-yl]-3-(trifluoromethyl)pyrazol-1-yl]acetonitrile] |  |  |
| 2.2 | O=C(NC1CCNCC1)c1ccc(Nc2nccn3c(-c4c[nH]nc4C(F)(F)F)cnc23)cc1Cl [Example 413, 2-chloro-N-piperidin-4-yl-4-[[3-[3-(trifluoromethyl)-1H-pyrazol-4-yl]imidazo[1,2-a]pyrazin-8-yl]amino]benzamide] |  |  |
